Experimental data from the NIST ThermoML archive (doi:10.1016/j.jct.2017.06.001).
± gives the expanded uncertainty stated by the source.

Experiment: xn = mol fraction of the nth substance listed
Settings: 100 kPa, Liquid; for speed of sound: Frequency=5 MHz, Pulse-echo method; for mass density: Vibrating tube method

OCCCCCO [1,5-pentanediol] + O
Settings | mass density [kg/m3] | speed of sound [m/s]
318.15 K, x1 = 0.005 | 989.65 ± 0.52 | –
318.15 K, x1 = 0.0101 | 989.41 ± 1 | –
318.15 K, x1 = 0.0196 | 989.31 ± 1 | –
318.15 K, x1 = 0.0251 | 989.53 ± 1 | –
318.15 K, x1 = 0.0304 | 989.77 ± 1 | –
318.15 K, x1 = 0.05 | 990.21 ± 1 | –
318.15 K, x1 = 0.0769 | 990.38 ± 1 | –
318.15 K, x1 = 0.1002 | 990.62 ± 1.1 | –
318.15 K, x1 = 0.1438 | 990.42 ± 1.1 | –
318.15 K, x1 = 0.1836 | – | 1646.1 ± 1.3
318.15 K, x1 = 0.1845 | 989.72 ± 1.1 | –
318.15 K, x1 = 0.1877 | – | 1645.8 ± 1.3
318.15 K, x1 = 0.1923 | – | 1645.5 ± 1.3
318.15 K, x1 = 0.1928 | – | 1645.4 ± 1.3
318.15 K, x1 = 0.1977 | – | 1645 ± 1.3
318.15 K, x1 = 0.2017 | – | 1644.7 ± 1.3
318.15 K, x1 = 0.2025 | – | 1644.6 ± 1.3
318.15 K, x1 = 0.2049 | – | 1644.4 ± 1.3
318.15 K, x1 = 0.2132 | – | 1643.6 ± 1.3
318.15 K, x1 = 0.2224 | – | 1642.7 ± 1.3
318.15 K, x1 = 0.2331 | – | 1641.6 ± 1.3
318.15 K, x1 = 0.2482 | – | 1640 ± 1.3
318.15 K, x1 = 0.2503 | 988.52 ± 1.2 | –
318.15 K, x1 = 0.2698 | – | 1637.7 ± 1.4
318.15 K, x1 = 0.2859 | – | 1635.9 ± 1.4
318.15 K, x1 = 0.2955 | – | 1634.9 ± 1.4
318.15 K, x1 = 0.3 | 987.37 ± 1.2 | –
318.15 K, x1 = 0.312 | – | 1633 ± 1.4
318.15 K, x1 = 0.3191 | – | 1632.2 ± 1.4
318.15 K, x1 = 0.3343 | 986.64 ± 1.3 | –
318.15 K, x1 = 0.3352 | – | 1630.3 ± 1.4
318.15 K, x1 = 0.3499 | – | 1628.6 ± 1.4
318.15 K, x1 = 0.3678 | – | 1626.5 ± 1.4
318.15 K, x1 = 0.3857 | – | 1624.3 ± 1.5
318.15 K, x1 = 0.4054 | – | 1621.9 ± 1.5
318.15 K, x1 = 0.4171 | 985.02 ± 1.4 | –
318.15 K, x1 = 0.4216 | – | 1619.8 ± 1.5
318.15 K, x1 = 0.4392 | – | 1617.6 ± 1.5
318.15 K, x1 = 0.4494 | – | 1616.3 ± 1.5
318.15 K, x1 = 0.454 | 984.19 ± 1.4 | –
318.15 K, x1 = 0.4703 | – | 1613.5 ± 1.6
318.15 K, x1 = 0.4894 | – | 1611 ± 1.6
318.15 K, x1 = 0.5003 | 983.3 ± 1.5 | –
318.15 K, x1 = 0.5038 | – | 1609.1 ± 1.6
318.15 K, x1 = 0.5212 | – | 1606.7 ± 1.6
318.15 K, x1 = 0.5362 | 982.6 ± 1.5 | –
318.15 K, x1 = 0.5442 | – | 1603.6 ± 1.6
318.15 K, x1 = 0.565 | – | 1600.8 ± 1.7
318.15 K, x1 = 0.5841 | – | 1598.3 ± 1.7
318.15 K, x1 = 0.6039 | – | 1595.7 ± 1.7
318.15 K, x1 = 0.6177 | 981.2 ± 1.7 | –
318.15 K, x1 = 0.6258 | – | 1592.8 ± 1.8
318.15 K, x1 = 0.6425 | – | 1590.6 ± 1.8
318.15 K, x1 = 0.6478 | 980.7 ± 1.7 | –
318.15 K, x1 = 0.6602 | – | 1588.3 ± 1.8
318.15 K, x1 = 0.6789 | – | 1586 ± 1.8
318.15 K, x1 = 0.6988 | – | 1583.5 ± 1.9
318.15 K, x1 = 0.7025 | 979.9 ± 1.8 | –
318.15 K, x1 = 0.7197 | – | 1581 ± 1.9
318.15 K, x1 = 0.7436 | – | 1578.2 ± 1.9
318.15 K, x1 = 0.7504 | 979.2 ± 1.9 | –
318.15 K, x1 = 0.7664 | – | 1575.6 ± 1.9
318.15 K, x1 = 0.7919 | – | 1572.7 ± 2
318.15 K, x1 = 0.7927 | 978.5 ± 2 | –
318.15 K, x1 = 0.8187 | – | 1569.8 ± 2
318.15 K, x1 = 0.8416 | – | 1567.3 ± 2.1
318.15 K, x1 = 0.8605 | 977.4 ± 2.1 | –
318.15 K, x1 = 0.864 | – | 1564.8 ± 2.1
318.15 K, x1 = 0.8864 | – | 1562.4 ± 2.1
318.15 K, x1 = 0.9004 | 976.7 ± 2.2 | –
318.15 K, x1 = 0.9086 | – | 1560 ± 2.2
318.15 K, x1 = 0.926 | – | 1558 ± 2.2
318.15 K, x1 = 0.9413 | – | 1556.3 ± 2.2
318.15 K, x1 = 0.9496 | 975.8 ± 2.2 | –
318.15 K, x1 = 0.9573 | – | 1554.4 ± 2.2
318.15 K, x1 = 0.971 | – | 1552.7 ± 2.3
318.15 K, x1 = 0.9808 | – | 1551.5 ± 2.3
318.15 K, x1 = 0.9903 | – | 1550.3 ± 2.3
318.15 K, x1 = 0.9952 | – | 1549.7 ± 2.3
318.15 K, x1 = 1 | 974.9 ± 2.1 | 1549 ± 2.3
323.15 K, x1 = 0.005 | 987.42 ± 0.52 | –
323.15 K, x1 = 0.0101 | 987.12 ± 1 | –
323.15 K, x1 = 0.0196 | 986.93 ± 1 | –
323.15 K, x1 = 0.0251 | 987.06 ± 1 | –
323.15 K, x1 = 0.0304 | 987.26 ± 1 | –
323.15 K, x1 = 0.05 | 987.48 ± 1 | –
323.15 K, x1 = 0.0769 | 987.42 ± 1 | –
323.15 K, x1 = 0.1002 | 987.52 ± 1.1 | –
323.15 K, x1 = 0.1438 | 987.17 ± 1.1 | –
323.15 K, x1 = 0.1845 | 986.36 ± 1.1 | –
323.15 K, x1 = 0.2503 | 985.12 ± 1.2 | –
323.15 K, x1 = 0.3 | 983.93 ± 1.2 | –
323.15 K, x1 = 0.3343 | 983.17 ± 1.3 | –
323.15 K, x1 = 0.4171 | 981.65 ± 1.4 | –
323.15 K, x1 = 0.454 | 980.83 ± 1.4 | –
323.15 K, x1 = 0.5003 | 980 ± 1.5 | –
323.15 K, x1 = 0.5362 | 979.3 ± 1.5 | –
323.15 K, x1 = 0.6177 | 978 ± 1.7 | –
323.15 K, x1 = 0.6478 | 977.5 ± 1.7 | –
323.15 K, x1 = 0.7025 | 976.7 ± 1.8 | –
323.15 K, x1 = 0.7504 | 976.1 ± 1.9 | –
323.15 K, x1 = 0.7927 | 975.4 ± 2 | –
323.15 K, x1 = 0.8605 | 974.4 ± 2.1 | –
323.15 K, x1 = 0.9004 | 973.7 ± 2.2 | –
323.15 K, x1 = 0.9496 | 972.8 ± 2.2 | –
323.15 K, x1 = 1 | 971.9 ± 2.1 | –
328.15 K, x1 = 0.005 | 985.03 ± 0.52 | –
328.15 K, x1 = 0.0101 | 984.7 ± 1 | –
328.15 K, x1 = 0.0196 | 984.4 ± 1 | –
328.15 K, x1 = 0.0251 | 984.49 ± 1 | –
328.15 K, x1 = 0.0304 | 984.6 ± 1 | –
328.15 K, x1 = 0.05 | 984.62 ± 1 | –
328.15 K, x1 = 0.0769 | 984.36 ± 1 | –
328.15 K, x1 = 0.1002 | 984.33 ± 1 | –
328.15 K, x1 = 0.1438 | 983.84 ± 1.1 | –
328.15 K, x1 = 0.1845 | 982.94 ± 1.1 | –
328.15 K, x1 = 0.2503 | 981.66 ± 1.2 | –
328.15 K, x1 = 0.3 | 980.46 ± 1.2 | –
328.15 K, x1 = 0.3343 | 979.7 ± 1.2 | –
328.15 K, x1 = 0.4171 | 978.26 ± 1.4 | –
328.15 K, x1 = 0.454 | 977.43 ± 1.4 | –
328.15 K, x1 = 0.5003 | 976.6 ± 1.5 | –
328.15 K, x1 = 0.5362 | 976 ± 1.5 | –
328.15 K, x1 = 0.6177 | 974.8 ± 1.7 | –
328.15 K, x1 = 0.6478 | 974.3 ± 1.7 | –
328.15 K, x1 = 0.7025 | 973.6 ± 1.8 | –
328.15 K, x1 = 0.7504 | 972.9 ± 1.9 | –
328.15 K, x1 = 0.7927 | 972.3 ± 2 | –
328.15 K, x1 = 0.8605 | 971.3 ± 2.1 | –
328.15 K, x1 = 0.9004 | 970.7 ± 2.2 | –
328.15 K, x1 = 0.9496 | 969.9 ± 2.2 | –
328.15 K, x1 = 1 | 969 ± 2.1 | –
333.15 K, x1 = 0.005 | 982.48 ± 0.52 | –
333.15 K, x1 = 0.0101 | 982.09 ± 1 | –
333.15 K, x1 = 0.0196 | 981.69 ± 1 | –
333.15 K, x1 = 0.0251 | 981.7 ± 1 | –
333.15 K, x1 = 0.0304 | 981.74 ± 1 | –
333.15 K, x1 = 0.05 | 981.63 ± 1 | –
333.15 K, x1 = 0.0769 | 981.19 ± 1 | –
333.15 K, x1 = 0.1002 | 981.04 ± 1 | –
333.15 K, x1 = 0.1438 | 980.43 ± 1.1 | –
333.15 K, x1 = 0.1845 | 979.44 ± 1.1 | –
333.15 K, x1 = 0.2503 | 978.15 ± 1.2 | –
333.15 K, x1 = 0.3 | 976.99 ± 1.2 | –
333.15 K, x1 = 0.3343 | 976.21 ± 1.2 | –
333.15 K, x1 = 0.4171 | 974.8 ± 1.4 | –
333.15 K, x1 = 0.454 | 973.98 ± 1.4 | –
333.15 K, x1 = 0.5003 | 973.2 ± 1.5 | –
333.15 K, x1 = 0.5362 | 972.6 ± 1.5 | –
333.15 K, x1 = 0.6177 | 971.5 ± 1.7 | –
333.15 K, x1 = 0.6478 | 971 ± 1.7 | –
333.15 K, x1 = 0.7025 | 970.3 ± 1.8 | –
333.15 K, x1 = 0.7504 | 969.7 ± 1.9 | –
333.15 K, x1 = 0.7927 | 969.1 ± 2 | –
333.15 K, x1 = 0.8605 | 968.1 ± 2.1 | –
333.15 K, x1 = 0.9004 | 967.6 ± 2.2 | –
333.15 K, x1 = 0.9496 | 966.7 ± 2.2 | –
333.15 K, x1 = 1 | 965.9 ± 2.1 | –
